In one data set the test system is animals. Description: Feed supplementation for improving the fertility of animals (titration of the substance into the feed). The class given is in vivo. The source says: It was found in our studies that phytohormones and beta-glucans appeared to work in a wide range of concentrations for improving the fertility of animals. The optimal concentrations may vary between different species, however, the skilled person will know how to obtain an optimal concentration for a given species, for instance by titration of the desired compound into the animal feed and testing when this would have the optimal effect. The following may serve as guidance in this process. A skilled person will appreciate that the amount of free IAA in the ready to use feed has to be adjusted in order to supply the animal with an effective amount of free IAA. In order to adjust the free IAA concentration in the feed so that a certain daily intake of free IAA is achieved, an estimate has to be made of the feed intake of an animal or animal group. A skilled person is aware of the feed intake of a particular (kind or group of) animal(s). Typically, the feed intake per day is between 0.5 and 10% of the body weight of the animal, with occasional exceptions as high as 20%. Elderly animals tend to eat less and are considered to have a feed intake per day between 0.1 and 5%, typically of 1% of their body mass. […] A particularly good source of such 1,3 and 1,6 beta glucans may be found in preparations of Agaricus blazei murill (ABM) or yeast cell walls. […] This corresponds to approximately 0.1 to 100 mg/kglw/day of 1,3 and 1,6 beta glucans. […] The effect of improving the fertility of animals was also observed when the feed of animals was supplemented with Gibberelin or Gibberellic acid.

For a further data set, the system named is humans. Conditions: single doses of 0.1 g/kg body weight; cited from earlier work.

Consider 1,3 and 1,6 beta glucans, for which, in the data set on animals (fed with 1 to 10 mg/kglw/day), the fertility of animals result is reported as “Excellent results”.

Consider `C=C1C[C@]23C[C@@]1(O)CC[C@H]2[C@@]12C=C[C@H](O)[C@@](C)(C(=O)O1)[C@H]2[C@@H]3C(=O)O` [Gibberellic acid], for which the fertility of animals entry in the data set with animals (between 0.01 and 0.1 mg/kglw/day, such as 0.04 mg/kglw/day) is reported as “Optimal results”; with animals (range of 0.004 and 0.4 mg/kglw/day) it was “particularly pronounced”.

As to `O=C(O)Cc1c[nH]c2ccccc12` [free IAA, indole-3-acetic acid], the “toxicity of single doses” value in the data set on humans is given as “non-toxic”. Besides, the fertility of animals entry with animals (feed supplemented with free IAA instead of conjugated IAA) was “Particularly good results”; in the data set with animals (feeding with 0.4 mg/kglw/day), “very effective”; with animals (provided in feed in the range of 0.004 and 40 mg/kglw/day), “improved”.

The record behind these values is patent US8084440B2, “Method for improving the fertility of animals” (Desol B.V., priority 2005, dated 2011).
